Source: article PMC9564337, “Development of a Neurotensin-Derived ^68Ga-Labeled PET Ligand with High In Vivo Stability for Imaging of NTS1 Receptor-Expressing Tumors” (Cancers, 2022)
Like-named read-outs stand apart in the source and are kept apart here.

Key:
in vitro = in vitro ADME; settings: human; for remaining at 1 h, 100 µM / remaining at 6 h, 100 µM / remaining at 24 h, 100 µM / remaining at 48 h, 100 µM: plasma; for remaining at 1 h, 100 µM: pH 7.4, % Intact Peptide in Plasma after 1 h; for remaining at 6 h, 100 µM: pH 7.4, % Intact Peptide in Plasma after 6 h; for remaining at 24 h, 100 µM: pH 7.4, % Intact Peptide in Plasma after 24 h; for remaining at 48 h, 100 µM: pH 7.4, % Intact Peptide in Plasma after 48 h
Method: The concentration of the peptides in plasma/PBS (1:2 v/v) was 80 and 4 μM (recovery determination) or 100 μM (stability tests). Data analysis was based on UV detection at 220 nm (8, 9, 11, 12, 14-18, 21-23, 38-49, and 54-57) or fluorescence detection at 275/305 nm (19 and 20). Reference samples, representing 100% recovery, were prepared in duplicate (8, 9, 11, 14-16, and 19-21) or quadruplicate (12, 17, 18, 22, 23, 38-49, and 54-57). Recovery ratios were obtained by dividing the recovery of the peptide by the recovery of IS for each individual sample (n = 3-5). The obtained recoveries and the recovery ratios are summarized in Table S2, Supplementary Materials. […] Instead, the recovery ratios determined for the previously reported, structurally closely related peptide […] [40] were used for calculating the amount of remaining intact peptide in plasma.

hNTS2R = hNTS2R (Homo sapiens, UniProt O95665); assay: radioligand competition binding with [3H]UR-MK300 at intact HEK293T-hNTS2R cells; settings: [3H]UR-MK300 c = 10 nM
Method: Two days prior to the experiment, white 96-well plates with clear bottoms (Costar, catalog no. 3610) were treated with poly-D-lysine hydrobromide (Sigma-Aldrich) for 10 min. The wells were washed with H2O and the plates were dried on air at rt overnight. […] After removal of the glutaraldehyde solution, the wells were washed twelve times with H2O and two times with culture medium (150–300 µL). […] On the day of the experiment, the culture medium was carefully removed using a multi-channel pipette (Transferpette S-12, Brand, Wertheim, Germany) and the cells were washed once with Dulbecco’s phosphate-buffered saline (D-PBS) containing Ca^2+ and Mg^2+ (1.8 mM CaCl2, 2.68 mM KCl, 1.47 mM KH2PO4, 3.98 mM MgSO4, 136.9 mM NaCl and 8.06 mM Na2HPO4) (200 μL, rt) followed by the careful pre-filling of the wells with 180 µL (total binding) or 160 µL (unspecific and competition binding) of D-PBS, supplemented with 1% BSA and 100 μg/mL bacitracin (Serva, Heidelberg, Germany) (in the following referred to as binding buffer). To determine total binding, 20 µL of a solution of the radioligand in binding buffer (10-fold concentrated compared to the final concentration) were added. […] To determine the displacing effect of a compound of interest, 20 µL of a solution of the respective compound in binding buffer (10-fold concentrated) and 20 µL of a 10-fold concentrated solution of the radioligand in binding buffer were added. During the incubation period of 2 h at 23 °C, the plates were gently shaken. […] The plates were sealed with a transparent sealing tape (permanent seal for microplates, PerkinElmer, product no. 1450–461) and turned upside down several times to achieve complete mixing. Prior to the measurement of the radioactivity with a MicroBeta2 plate counter (PerkinElmer), the plates were kept in the dark for at least 1 h. All experiments were performed in triplicate.

hNTS1R = molecular target: T1, hNTS1R (Homo sapiens, UniProt P30989); assay: radioligand competition binding with [3H]UR-MK300 at intact HT-29 cells; settings: for Ki / pKi ± SD NTS1R: [3H]UR-MK300 c = 1 nM, HT-29 cells, 23 °C
T1 construct: intact HT-29 colon carcinoma cells expressing the hNTS1R; host or cells: HT-29 human colon carcinoma cells
Text: Specific binding data (obtained by subtracting unspecific binding from total binding) were normalized (100% = specifically bound radioligand in the absence of competitor) and plotted over log(concentration of competitor) followed by a four-parameter logistic fit (SigmaPlot 12.5, Systat Software, San José, CA, USA) (note: in the case of 40, the lower curve plateau of the sigmoidal fit was constrained to >0). […] The Ki values from individual experiments were transformed to pKi values, followed by the calculation of mean pKi values ± SD.

[1] = read-out: Ki [nM] NTS2R (converted)
[2] = read-out: pKi ± SD NTS2R (converted)
[3] = read-out: Ki [nM] NTS1R (converted)
[4] = read-out: pKi ± SD NTS1R (converted)

Sequence of hNTS2R (O95665 whole entry): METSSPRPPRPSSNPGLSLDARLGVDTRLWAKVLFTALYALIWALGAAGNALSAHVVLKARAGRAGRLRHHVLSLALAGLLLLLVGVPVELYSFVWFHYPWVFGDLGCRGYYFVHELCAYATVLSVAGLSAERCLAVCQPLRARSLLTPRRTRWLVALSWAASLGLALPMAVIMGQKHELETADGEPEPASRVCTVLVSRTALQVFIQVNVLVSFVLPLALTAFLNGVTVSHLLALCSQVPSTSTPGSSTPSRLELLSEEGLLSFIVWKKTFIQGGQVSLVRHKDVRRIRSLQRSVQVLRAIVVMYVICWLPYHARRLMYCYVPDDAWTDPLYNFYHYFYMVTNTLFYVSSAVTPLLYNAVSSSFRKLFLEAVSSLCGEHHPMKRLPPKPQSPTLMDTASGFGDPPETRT
T1 sequence (P30989 whole entry): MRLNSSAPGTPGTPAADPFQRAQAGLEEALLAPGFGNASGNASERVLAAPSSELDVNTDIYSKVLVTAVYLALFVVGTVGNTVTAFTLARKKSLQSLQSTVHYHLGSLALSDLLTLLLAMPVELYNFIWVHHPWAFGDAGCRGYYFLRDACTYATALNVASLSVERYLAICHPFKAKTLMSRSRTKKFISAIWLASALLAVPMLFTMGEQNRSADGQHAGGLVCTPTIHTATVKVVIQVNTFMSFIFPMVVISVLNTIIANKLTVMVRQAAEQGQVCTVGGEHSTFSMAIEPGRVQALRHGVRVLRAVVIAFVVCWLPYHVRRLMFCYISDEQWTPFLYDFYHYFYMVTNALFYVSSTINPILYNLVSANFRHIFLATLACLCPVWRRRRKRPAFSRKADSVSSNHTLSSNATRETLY

remaining at 1 h, 100 µM (in vitro) [%] | remaining at 6 h, 100 µM (in vitro) [%] | remaining at 24 h, 100 µM (in vitro) [%] | remaining at 48 h, 100 µM (in vitro) [%] | Ki (hNTS2R; [1]) [nM] | Ki (hNTS2R; [2]) [nM] | NTS1R Selectivity (Ratio Ki (NTS2R)/Ki (NTS1R)) (hNTS1R) | Ki (hNTS1R; [3]) [nM] | % Intact Peptide in Plasma after 24 h (in vitro; 100 µM, pH 7.4) [%] | pKi ± SD NTS2R (hNTS2R) | pKi ± SD NTS1R (hNTS1R) | % Intact Peptide in Plasma after 1 h (in vitro; 1 h, 100 µM, pH 7.4) [%] | % Intact Peptide in Plasma after 6 h (in vitro; 6 h, 100 µM, pH 7.4) [%] | SMILES | Ki (hNTS1R; [4]) [nM] | % Intact Peptide in Plasma after 48 h (in vitro; 100 µM, pH 7.4) [%]
97 ± 1 | 99 ± 1 | – | – | 230 | 224 | 6.4 | 36 | 98 ± 1 | – | – | – | – | CC(C)C[C@H](NC(=O)[C@@H](NC(=O)[C@H](Cc1ccc(O)cc1)NC(=O)[C@@H]1CCCN1C(=O)[C@H](CCCNC(=N)NC(=O)NCCCCNC(=O)CN1CCN(CC(=O)O)CCN(CC(=O)O)CCN(CC(=O)O)CC1)N(C)C(=O)[C@@H](N)CCCNC(=N)N)C(C)(C)C)C(=O)O [Compound 17] | – | –
> 99 | > 99 | 36 ± 1 | 4.2 ± 0.6 | 73 | – | 4.6 | 16 | – | 7.16 ± 0.18 | 7.80 ± 0.03 | – | – | CN[C@@H](CCCNC(=N)N)C(=O)N[C@@H](CCCNC(N)=NC(=O)NCCCCNC(=O)CN1CCN(CC(=O)O)CCN(CC(=O)O)CCN(CC(=O)O)CC1)C(=O)N1CCC[C@H]1C(=O)N[C@@H](Cc1ccc(O)cc1)C(=O)N[C@H](C(=O)N[C@@H](CC(C)C)C(=O)O)C(C)(C)C [Compound 19] | – | –
– | – | – | – | 88 | – | 4.4 | 20 | 30 ± 1 | 7.08 ± 0.16 | 7.70 ± 0.07 | >99 | 87 ± 2 | CC(C)C[C@H](NC(=O)[C@@H](NC(=O)[C@H](Cc1ccc(O)cc1)NC(=O)[C@@H]1CCCN1C(=O)[C@H](CCCNC(N)=NC(=O)NCCCCNC(=O)CN1CCN(CC(=O)O)CCN(CC(=O)O)CCN(CC(=O)O)CC1)N(C)C(=O)[C@@H](N)CCCNC(=N)N)C(C)(C)C)C(=O)O [Compound 22] | – | 7.7 ± 1.0

Second part, the compound before the results:

SMILES | remaining at 1 h, 100 µM (in vitro) [%] | remaining at 6 h, 100 µM (in vitro) [%] | remaining at 24 h, 100 µM (in vitro) [%] | remaining at 48 h, 100 µM (in vitro) [%] | Ki (hNTS2R; [1]) [nM] | Ki (hNTS2R; [2]) [nM] | NTS1R Selectivity (Ratio Ki (NTS2R)/Ki (NTS1R)) (hNTS1R) | Ki (hNTS1R; [3]) [nM] | % Intact Peptide in Plasma after 24 h (in vitro; 100 µM, pH 7.4) [%] | pKi ± SD NTS2R (hNTS2R) | pKi ± SD NTS1R (hNTS1R) | % Intact Peptide in Plasma after 1 h (in vitro; 1 h, 100 µM, pH 7.4) [%] | % Intact Peptide in Plasma after 6 h (in vitro; 6 h, 100 µM, pH 7.4) [%] | Ki (hNTS1R; [4]) [nM] | % Intact Peptide in Plasma after 48 h (in vitro; 100 µM, pH 7.4) [%]
CN[C@@H](CCCNC(=N)N)C(=O)N[C@@H](CCCNC(=N)NC(=O)NCCCCN)C(=O)N1CCC[C@H]1C(=O)N[C@@H](Cc1ccc(O)cc1)C(=O)N[C@H](C(=O)N[C@@H](CC(C)C)C(=O)O)C(C)(C)C [Compound 8] | > 99 | > 99 | > 99 | > 99 | 22 | 20.9 | 4.2 | 5.3 | – | – | – | – | – | – | –
CC(C)C[C@H](NC(=O)[C@@H](NC(=O)[C@H](Cc1ccc(O)cc1)NC(=O)[C@@H]1CCCN1C(=O)[C@H](CCCNC(=N)NC(=O)NCCCCN)N(C)C(=O)[C@@H](N)CCCNC(=N)N)C(C)(C)C)C(=O)O [Compound 11] | > 99 | > 99 | > 99 | > 99 | 27 | – | 2.1 | 13 | – | – | – | – | – | – | –
CN[C@@H](CCCNC(=N)N)C(=O)N[C@@H](CCCNC(=N)NC(=O)NCCCCNC(=O)CN1CCN(CC(=O)O)CCN(CC(=O)O)CCN(CC(=O)O)CC1)C(=O)N1CCC[C@H]1C(=O)N[C@@H](Cc1ccc(O)cc1)C(=O)N[C@H](C(=O)N[C@@H](CC(C)C)C(=O)O)C(C)(C)C [Compound 14] | – | – | – | – | 79 | – | 2.8 | 28 | – | – | – | – | – | 21.9 | –
CN[C@@H](CCCNC(N)=NC(=O)NCCCCNC(=O)CN1CCN(CC(=O)O)CCN(CC(=O)O)CCN(CC(=O)O)CC1)C(=O)N[C@@H](CCCNC(=N)N)C(=O)N1CCC[C@H]1C(=O)N[C@@H](Cc1ccc(O)cc1)C(=O)N[C@H](C(=O)N[C@@H](CC(C)C)C(=O)O)C(C)(C)C [Compound 16] | – | – | – | – | 150 | 138 | 4.5 | 33 | 93 ± 3 | – | – | – | – | 33.1 | 84 ± 2
